From US5530126A, “Process for the preparation of substituted 6-(pyrazol-3yl)-1,4-benzoxazin-3-ones” (Monsanto Company, priority 1994, dated 1996) come the findings set out here.

Assay type in all cases: in vivo
The subject of assay [1] is Annual bluegrass. Kind of assay: Pre-emergence herbicide test. The conditions noted are these: 1.12 kg/ha, read-out: % plant inhibition (Anbg). Put shortly: (§1)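 Compound applied pre-emergence directly onto sown seeds in soil, then seeds covered with untreated topsoil. Plants grown in greenhouse with bottom watering. Inhibition (%) recorded visually at about 11 days.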
Assay [2] deals with Barnyardgrass. Kind of assay: Pre-emergence herbicide test. The conditions noted are these: Echinochloa crus-galli, 1.12 kg/ha, read-out: % plant inhibition (Bygr). Put shortly: as §1
Assay [3] relates to Cocklebur. Kind of assay: Pre-emergence herbicide test. The conditions noted are these: Xanthium strumarium, 1.12 kg/ha, read-out: % plant inhibition (Cobu). Put shortly:
as §1

For assay [4], the system named is Downy Brome. Kind of assay: Pre-emergence herbicide test. The following applies: Bromus tectorum, 1.12 kg/ha, read-out: % plant inhibition (Dobr). In a few lines:
as §1

Assay [5] relates to Indian Mustard. Kind of assay: Pre-emergence herbicide test. The conditions noted are these: Brassica juncea, 1.12 kg/ha, read-out: % plant inhibition (Inmu). In a few lines: as §1
For assay [6], the system named is Morningglory. Kind of assay: Pre-emergence herbicide test. The following applies: Ipomoea, 1.12 kg/ha, read-out: % plant inhibition (Mogl). In a few lines: as §1
Assay [7] deals with Seedling johnsongrass. Kind of assay: Pre-emergence herbicide test. The conditions noted are these: Sorghum halepense, 1.12 kg/ha, read-out: % plant inhibition (Sejg). In a few lines: as §1
Assay [8] relates to Velvetleaf. Kind of assay: Pre-emergence herbicide test. The following applies: Abutilon theophrasti, 1.12 kg/ha, read-out: % plant inhibition (Vele). Put shortly:
as §1

In assay [9] the test system is Wild buckwheat. Kind of assay: Pre-emergence herbicide test. The following applies: Fallopia convolvulus, 1.12 kg/ha, read-out: % plant inhibition (Wibw). Put shortly: as §1
Assay [10] concerns Yellow nutsedge. Kind of assay: Pre-emergence herbicide test. The following applies: Cyperus, 1.12 kg/ha, read-out: % plant inhibition (Yens). In a few lines: as §1
Assay [11] deals with Annual bluegrass. Kind of assay: Post-emergence herbicide test. The conditions noted are these: 1.12 kg/ha, read-out: % plant inhibition (Anbg). Put shortly: (§2)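 Post-emergence greenhouse spray: 2–3-wk-old plants in soil pans; atomizer at 170.3 kPa (10 psig); 1870 L/Ha carrier volume, ~0.4% v/v emulsifier. Read-out is % inhibition vs control at 10–14 d (usually 11 d), occasionally also 24–28 d.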

For assay [12], the system named is Barnyardgrass. Kind of assay: Post-emergence herbicide test. The conditions noted are these: Echinochloa crus-galli, 1.12 kg/ha, read-out: % plant inhibition (Bygr). In a few lines: as §2
Assay [13] has as its system Cocklebur. Kind of assay: Post-emergence herbicide test. The conditions noted are these: Xanthium strumarium, 1.12 kg/ha, read-out: % plant inhibition (Cobu). In a few lines: as §2
The subject of assay [14] is Downy Brome. Kind of assay: Post-emergence herbicide test. The conditions noted are these: Bromus tectorum, 1.12 kg/ha, read-out: % plant inhibition (Dobr). In a few lines:
as §2

Assay [15] relates to Indian Mustard. Kind of assay: Post-emergence herbicide test. The conditions noted are these: Brassica juncea, 1.12 kg/ha, read-out: % plant inhibition (Inmu). In a few lines: as §2
Assay [16] deals with Morningglory. Kind of assay: Post-emergence herbicide test. The following applies: Ipomoea, 1.12 kg/ha, read-out: % plant inhibition (Mogl). Put shortly: as §2
Assay [17] deals with Seedling johnsongrass. Kind of assay: Post-emergence herbicide test. The conditions noted are these: Sorghum halepense, 1.12 kg/ha, read-out: % plant inhibition (Sejg). Put shortly:
as §2

For assay [18], the system named is Velvetleaf. Kind of assay: Post-emergence herbicide test. The following applies: Abutilon theophrasti, 1.12 kg/ha, read-out: % plant inhibition (Vele). In a few lines:
as §2

In assay [19] the test system is Wild buckwheat. Kind of assay: Post-emergence herbicide test. The conditions noted are these: Fallopia convolvulus, 1.12 kg/ha, read-out: % plant inhibition (Wibw). Put shortly:
as §2

Assay [20] concerns Yellow nutsedge. Kind of assay: Post-emergence herbicide test. The following applies: Cyperus, 1.12 kg/ha, read-out: % plant inhibition (Yens). Put shortly: as §2

For orientation: inhibition means the percentage by which the read-out fell short of the control. Turning to `CCOC(=O)C(C)OC(=O)c1cc(-c2nn(C)c(C(F)(F)F)c2Cl)c(F)cc1Cl` (centres unmarked) [Compound 138, 2-Chloro-5-(4-chloro-1-methyl-5-(trifluoromethyl)-1H-pyrazol-3-yl)-4-fluorobenzoic acid, 2-ethoxy-1-methyl-2-oxoethyl ester], the inhibition at 1120 g/ha worked out at 40% in the assay with Annual bluegrass [1]; 50% with Barnyardgrass [2]; 100% in the assay with Cocklebur [3]; 90% with Downy Brome [4]; 100% with Indian Mustard [5]; 100% in the assay on Morningglory [6]. The inhibition at 1120 g/ha amounted to 30% with Seedling johnsongrass [7]; 100% with Velvetleaf [8]; 100% with Wild buckwheat [9]; 20% with Yellow nutsedge [10]; 100% in the assay on Annual bluegrass [11]; 100% with Barnyardgrass [12]. The inhibition at 1120 g/ha in the assay with Cocklebur [13], in the assay on Downy Brome [14], with Indian Mustard [15], in the assay with Morningglory [16], in the assay with Seedling johnsongrass [17] and with Velvetleaf [18] was 100% throughout. Further, the inhibition at 1120 g/ha in the assay with Wild buckwheat [19] was found to be 100%; with Yellow nutsedge [20], 20%.

`CC(C)COC(=O)c1cc(-c2nn(C)c(C(F)(F)F)c2Cl)c(F)cc1Cl` [Compound 139]: the inhibition at 1120 g/ha in the assay with Annual bluegrass [1] was 20%; in the assay with Barnyardgrass [2], 30%; in the assay with Cocklebur [3], 70%; in the assay with Downy Brome [4], 80%; in the assay on Indian Mustard [5], 90%; in the assay with Morningglory [6], 70%. For the same molecule, the inhibition at 1120 g/ha with Seedling johnsongrass [7] came to 40%; with Velvetleaf [8], 100%; in the assay with Wild buckwheat [9] it was 90%; in the assay on Yellow nutsedge [10], 20%; with Annual bluegrass [11] it was 90%; with Barnyardgrass [12] it was 100%. In addition, the inhibition at 1120 g/ha stood at 90% with Cocklebur [13]; 100% in the assay on Downy Brome [14]; 100% with Indian Mustard [15]; 100% in the assay with Morningglory [16]; 100% with Seedling johnsongrass [17]; 100% in the assay with Velvetleaf [18]. Also, the inhibition at 1120 g/ha in the assay on Wild buckwheat [19] turned out to be 100%; in the assay on Yellow nutsedge [20], 10%.

Consider `CCC(C)COC(=O)c1cc(-c2nn(C)c(C(F)(F)F)c2Cl)c(F)cc1Cl` (centres unmarked) [Compound 140], for which the inhibition at 1120 g/ha in the assay on Annual bluegrass [1] was 30%; with Barnyardgrass [2] it was 0%; in the assay with Cocklebur [3], 80%; in the assay with Downy Brome [4], 60%; with Indian Mustard [5], 70%; in the assay on Morningglory [6] it was 70%. For the same molecule, the inhibition at 1120 g/ha in the assay with Seedling johnsongrass [7] came to 70%; with Velvetleaf [8], 90%; in the assay with Wild buckwheat [9] it was 70%; in the assay with Yellow nutsedge [10] it was 0%; with Annual bluegrass [11], 100%; in the assay with Barnyardgrass [12], 100%. Also, the inhibition at 1120 g/ha with Cocklebur [13] was 100%; in the assay on Downy Brome [14], 100%; in the assay with Indian Mustard [15] it was 90%; in the assay with Morningglory [16] it was 100%; with Seedling johnsongrass [17] it was 100%; in the assay on Velvetleaf [18] it was 100%. Moreover, the inhibition at 1120 g/ha with Wild buckwheat [19] stood at 90%; in the assay on Yellow nutsedge [20], 10%.

For `CC(C)CCOC(=O)c1cc(-c2nn(C)c(C(F)(F)F)c2Cl)c(F)cc1Cl` [Compound 141], the inhibition at 1120 g/ha in the assay with Annual bluegrass [1] stood at 20%; with Barnyardgrass [2], 20%; in the assay with Cocklebur [3], 70%; in the assay on Downy Brome [4], 70%; in the assay on Indian Mustard [5] it was 80%; in the assay with Morningglory [6] it was 80%. The inhibition at 1120 g/ha in the assay on Seedling johnsongrass [7] is 50%; in the assay with Velvetleaf [8] it was 70%; in the assay with Wild buckwheat [9], 90%; in the assay with Yellow nutsedge [10] it was 0%; in the assay with Annual bluegrass [11], 90%; in the assay on Barnyardgrass [12], 70%. Further, the inhibition at 1120 g/ha was found to be 90% in the assay on Cocklebur [13]; 100% with Downy Brome [14]; 80% with Indian Mustard [15]; 100% in the assay with Morningglory [16]; 90% in the assay on Seedling johnsongrass [17]; 100% in the assay with Velvetleaf [18]. The inhibition at 1120 g/ha stood at 100% with Wild buckwheat [19] and 0% in the assay on Yellow nutsedge [20].

Turning to `CCOC(=O)c1cc(-c2nn(C)c(C(F)(F)F)c2Cl)c(F)cc1Cl` [Compound 148, 2-Chloro-5-(4-chloro-1-methyl-5-(trifluoromethyl)-1H-pyrazol-3-yl)-4-fluorobenzoic acid, ethyl ester], the inhibition at 1120 g/ha in the assay on Annual bluegrass [1] is 70%; in the assay with Barnyardgrass [2], 90%; in the assay on Cocklebur [3], 90%; in the assay on Downy Brome [4], 80%; in the assay on Indian Mustard [5], 100%; in the assay on Morningglory [6], 100%. Moreover, the inhibition at 1120 g/ha with Seedling johnsongrass [7] stood at 50%; in the assay with Velvetleaf [8] it was 100%; in the assay with Wild buckwheat [9], 100%; with Yellow nutsedge [10], 0%; with Annual bluegrass [11] it was 100%; with Barnyardgrass [12] it was 100%. The inhibition at 1120 g/ha in the assay with Cocklebur [13], in the assay with Downy Brome [14], in the assay on Indian Mustard [15], in the assay with Morningglory [16], in the assay with Seedling johnsongrass [17] and with Velvetleaf [18] was 100% throughout. The inhibition at 1120 g/ha in the assay on Wild buckwheat [19] came to 100%; with Yellow nutsedge [20] it was 20%.

Consider `Cn1nc(-c2cc(N)c(Cl)cc2F)c(Cl)c1C(F)F` [Compound 178], for which the inhibition at 1120 g/ha with Annual bluegrass [1] turned out to be 20%; in the assay on Barnyardgrass [2], 10%; in the assay on Cocklebur [3], 20%; in the assay with Downy Brome [4], 30%; with Indian Mustard [5], 90%; in the assay with Morningglory [6] it was 50%. For the same molecule, the inhibition at 1120 g/ha was determined as 10% with Seedling johnsongrass [7]; 100% in the assay with Velvetleaf [8]; 100% with Wild buckwheat [9]; 0% in the assay on Yellow nutsedge [10]; 90% in the assay on Annual bluegrass [11]; 70% with Barnyardgrass [12]. The inhibition at 1120 g/ha is 90% in the assay on Cocklebur [13]; 90% with Downy Brome [14]; 70% in the assay on Indian Mustard [15]; 100% in the assay on Morningglory [16]; 70% with Seedling johnsongrass [17]; 100% in the assay with Velvetleaf [18]. Also, the values for the inhibition at 1120 g/ha with Wild buckwheat [19] and in the assay with Yellow nutsedge [20] were 100% and 0%, respectively.

On to `Cn1nc(-c2cc([N+](=O)[O-])c(Cl)cc2F)c(Cl)c1C(F)F` [Compound 198], for which the inhibition at 1120 g/ha in the assay on Annual bluegrass [1] was found to be 0%; in the assay on Barnyardgrass [2] it was 0%; in the assay on Cocklebur [3], 0%; in the assay with Downy Brome [4], 0%; in the assay on Indian Mustard [5], 20%; in the assay with Morningglory [6] it was 0%. For the same molecule, the inhibition at 1120 g/ha in the assay with Seedling johnsongrass [7] came to 0%; in the assay with Velvetleaf [8], 80%; with Wild buckwheat [9], 70%; in the assay on Yellow nutsedge [10], 0%; in the assay on Annual bluegrass [11] it was 50%; with Barnyardgrass [12], 50%. Moreover, the inhibition at 1120 g/ha amounted to 70% with Cocklebur [13]; 70% in the assay on Downy Brome [14]; 100% with Indian Mustard [15]; 90% in the assay on Morningglory [16]; 70% with Seedling johnsongrass [17]; 100% in the assay with Velvetleaf [18]. For the same molecule, the inhibition at 1120 g/ha turned out to be 100% in the assay with Wild buckwheat [19] and 0% in the assay on Yellow nutsedge [20].
